Assay results reported in US20240132525A1, “BORON […], CO[…], METHODS AND USES THEREOF” (priority 2022, published 2024).
Where two headings read alike, the source gives them in different places.

Experiments:
[1] = molecular target: JAK1 (Homo sapiens (Human), UniProt P23458); experiment: Biochemical kinase assay (33P-ATP filter-binding), JAK1; details: read-out: IC50 JAK1
Excerpt: (§1) Biochemical Kinase Assay Protocol (JAK)
(§2) Reaction Procedure: • 1. […] Detected kinase activity by filter-binding method.

[2] = molecular target: JAK2 (Homo sapiens (Human), UniProt O60674); experiment: Biochemical kinase assay (33P-ATP filter-binding), JAK2; details: read-out: IC50 JAK2
Excerpt: as §1, §2

[3] = system: IL-4/pSTAT6; experiment: Cytokine function assay IL-4/pSTAT6 in PBMC; type: cell-based
Experimental: (§3) Cytokine Function Assay Protocols for IL-4/pSTAT6 and GM-CSF/pSTAT5
IL-4/pSTAT6: • PBMC from a healthy donor was plated onto a 96 w plate. Compound was added and incubated for 1 hour (at 37° C.). After 1 hour, cells were stimulated with IL-4 for 15 minutes. Cells were fixed and stained with anti-pSTAT6 antibody. After staining, cells were read on a Beckman-Coulter CytoFLEX.

[4] = Dog LM (liver microsome) assay; type: in vitro ADME; details: predicted clearance as percent of liver blood flow
Experimental: Dog LM (Liver Microsome) Assay
The metabolic degradation of the test compound is assayed at 37° C. with pooled liver microsomes from dogs (Beagle). The final incubation volume of 100 μl per time point contains TRIS buffer pH 7.6 at RT (0.1 M), magnesium chloride (5 mM), microsomal protein (1 mg/ml) and the test compound at a final concentration of 1 μM. Following a short preincubation period at 37° C., the reactions were initiated by addition of beta-nicotinamide adenine dinucleotide phosphate, reduced form (NADPH, 1 mM) and terminated by transferring an aliquot into solvent after different time points. Additionally, the NADPH-independent degradation was monitored in incubations without NADPH, terminated at the last time point. The [%] remaining test compound after NADPH independent incubation is reflected by the parameter c (control) (metabolic stability). The quenched incubations are pelleted by centrifugation (10000 g, 5 min). An aliquot of the supernatant is assayed by LC-MS/MS for the amount of parent compound. The half-life (t½ INVITRO) is determined by the slope of the semilogarithmic plot of the concentration-time profile. The intrinsic clearance (CL_[…]) is calculated by considering the amount of protein in the incubation: CL_[…] [μl/min/mg protein]=(Ln 2/(half-life [min]*protein content [mg/ml]))*1000. For better across species comparison the predicted clearance is expressed as percent of the liver blood flow [% QH] in the individual species. In general, high stability (corresponding to low % QH) of the compounds across species is desired.

[5] = system: IL-31; experiment: Cytokine function assay for IL-31 in DH82 cells; type: cell-based, canine; details: Canis lupus familiaris, DH82; Table 3a; read-out: IC50 IL-31
Experimental: Cytokine Function Assay Protocol for IL-31
The protocol for the cytokine function assay for IL-31 is set forth below: • 1. […] After 24 hr, wash with 37° C. pre-warmed PBS (100 uL/well). • 3. Add serum-free MEM, 90 uL per well, 2 hr, 37° C. • 4. Add 10 uL 10×IL-31 (40, 10, 2.5 ug/mL) in duplicate, 5 min, 37° C. • 5. Remove medium, add 60 uL lysis buffer per well. Agitate on a plate shaker (˜350 rpm) for 10 min at RT. • 6. […] Add 6 uL Acceptor Mix, cover with aluminum foil, quickly spin at 1000 rpm, shake at 120 rpm for 2 min, then incubate at RT for 1 hr. • 8. Add 6 uL Donor Mix, cover with aluminum foil, quickly spin at 1000 rpm, shake at 120 rpm for 2 min, then incubate at RT for 1 hr. • 9. Measure the fluorescence using EnVision™ plate reader.

[6] = system: GM-CSF/pSTAT5; experiment: Cytokine function assay GM-CSF/pSTAT5 in lysed whole blood cells; type: cell-based; details: read-out: IC50 GM-CSF
Experimental: as §3
GM-CSF/pSTAT5: • Whole blood from a healthy donor was lysed to remove red blood cells. Cells were plated onto a 96 well plate. Compound was added and incubated for 1 hour (at 37° C.). After 1 hour, cells were stimulated with GM-CSF for 15 minutes. Cells were fixed and stained with anti-pSTAT5 antibody. After staining, cells were read on a Beckman-Coulter CytoFLEX.

[7] = molecular target: PDE4B (Homo sapiens (Human), UniProt Q07343); experiment: PDE4B inhibition; type: biochemical
[8] = PBMC, read-out: IC50 IL-4, Table 3a
[9] = Table 3a, 1 μM, 1 mg/ml microsomal protein
[10] = Table 3b, comparator compounds, read-out: IC50 IL-4

Sequence of JAK2 (O60674 whole entry, species assumed): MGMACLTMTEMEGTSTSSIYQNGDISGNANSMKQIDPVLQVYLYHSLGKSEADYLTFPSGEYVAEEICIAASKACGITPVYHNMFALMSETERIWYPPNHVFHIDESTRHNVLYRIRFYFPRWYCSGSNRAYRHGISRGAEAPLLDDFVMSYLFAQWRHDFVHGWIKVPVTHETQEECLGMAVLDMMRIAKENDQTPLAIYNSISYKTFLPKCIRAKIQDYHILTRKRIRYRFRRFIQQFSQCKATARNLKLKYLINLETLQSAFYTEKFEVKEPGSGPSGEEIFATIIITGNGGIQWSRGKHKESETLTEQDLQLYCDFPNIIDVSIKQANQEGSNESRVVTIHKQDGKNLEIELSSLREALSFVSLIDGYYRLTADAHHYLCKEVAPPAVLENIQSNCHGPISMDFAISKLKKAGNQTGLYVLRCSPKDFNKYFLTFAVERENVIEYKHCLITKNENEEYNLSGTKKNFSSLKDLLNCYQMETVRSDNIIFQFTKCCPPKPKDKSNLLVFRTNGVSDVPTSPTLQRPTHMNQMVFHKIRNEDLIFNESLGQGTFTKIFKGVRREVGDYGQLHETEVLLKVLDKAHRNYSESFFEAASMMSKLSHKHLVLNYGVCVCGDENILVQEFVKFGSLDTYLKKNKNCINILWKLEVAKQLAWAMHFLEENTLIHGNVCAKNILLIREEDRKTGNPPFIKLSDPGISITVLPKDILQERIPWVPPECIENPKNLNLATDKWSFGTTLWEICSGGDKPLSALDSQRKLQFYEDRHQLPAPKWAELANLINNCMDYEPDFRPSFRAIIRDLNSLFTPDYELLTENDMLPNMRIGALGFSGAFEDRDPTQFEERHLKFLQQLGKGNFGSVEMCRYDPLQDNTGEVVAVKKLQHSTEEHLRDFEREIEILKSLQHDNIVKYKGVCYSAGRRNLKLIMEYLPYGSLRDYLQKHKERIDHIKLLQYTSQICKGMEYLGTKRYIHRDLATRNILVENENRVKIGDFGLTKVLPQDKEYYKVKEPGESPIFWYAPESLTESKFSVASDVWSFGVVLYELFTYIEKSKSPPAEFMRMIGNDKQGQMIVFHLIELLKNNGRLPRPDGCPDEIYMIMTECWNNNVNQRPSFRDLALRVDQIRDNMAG
Sequence of PDE4B (Q07343 whole entry, species assumed): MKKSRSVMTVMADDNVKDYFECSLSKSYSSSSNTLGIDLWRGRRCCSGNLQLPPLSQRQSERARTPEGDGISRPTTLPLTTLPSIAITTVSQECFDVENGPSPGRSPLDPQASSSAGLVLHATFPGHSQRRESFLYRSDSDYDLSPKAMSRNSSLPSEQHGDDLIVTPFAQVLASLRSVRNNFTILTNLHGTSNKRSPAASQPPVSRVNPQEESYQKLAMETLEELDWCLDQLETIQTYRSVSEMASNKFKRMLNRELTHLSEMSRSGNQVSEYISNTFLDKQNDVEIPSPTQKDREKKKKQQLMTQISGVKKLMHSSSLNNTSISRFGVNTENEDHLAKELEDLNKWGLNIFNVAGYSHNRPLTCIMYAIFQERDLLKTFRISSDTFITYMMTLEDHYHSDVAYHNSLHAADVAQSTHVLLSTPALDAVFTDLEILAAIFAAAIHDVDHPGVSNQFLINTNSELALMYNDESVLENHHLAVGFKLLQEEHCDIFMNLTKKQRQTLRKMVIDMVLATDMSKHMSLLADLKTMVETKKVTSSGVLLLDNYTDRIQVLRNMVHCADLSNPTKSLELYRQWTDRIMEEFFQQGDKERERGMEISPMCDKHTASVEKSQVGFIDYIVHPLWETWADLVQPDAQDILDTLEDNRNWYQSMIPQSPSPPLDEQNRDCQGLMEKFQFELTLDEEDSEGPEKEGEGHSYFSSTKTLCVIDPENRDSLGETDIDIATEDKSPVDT
Sequence of JAK1 (P23458 whole entry, species assumed): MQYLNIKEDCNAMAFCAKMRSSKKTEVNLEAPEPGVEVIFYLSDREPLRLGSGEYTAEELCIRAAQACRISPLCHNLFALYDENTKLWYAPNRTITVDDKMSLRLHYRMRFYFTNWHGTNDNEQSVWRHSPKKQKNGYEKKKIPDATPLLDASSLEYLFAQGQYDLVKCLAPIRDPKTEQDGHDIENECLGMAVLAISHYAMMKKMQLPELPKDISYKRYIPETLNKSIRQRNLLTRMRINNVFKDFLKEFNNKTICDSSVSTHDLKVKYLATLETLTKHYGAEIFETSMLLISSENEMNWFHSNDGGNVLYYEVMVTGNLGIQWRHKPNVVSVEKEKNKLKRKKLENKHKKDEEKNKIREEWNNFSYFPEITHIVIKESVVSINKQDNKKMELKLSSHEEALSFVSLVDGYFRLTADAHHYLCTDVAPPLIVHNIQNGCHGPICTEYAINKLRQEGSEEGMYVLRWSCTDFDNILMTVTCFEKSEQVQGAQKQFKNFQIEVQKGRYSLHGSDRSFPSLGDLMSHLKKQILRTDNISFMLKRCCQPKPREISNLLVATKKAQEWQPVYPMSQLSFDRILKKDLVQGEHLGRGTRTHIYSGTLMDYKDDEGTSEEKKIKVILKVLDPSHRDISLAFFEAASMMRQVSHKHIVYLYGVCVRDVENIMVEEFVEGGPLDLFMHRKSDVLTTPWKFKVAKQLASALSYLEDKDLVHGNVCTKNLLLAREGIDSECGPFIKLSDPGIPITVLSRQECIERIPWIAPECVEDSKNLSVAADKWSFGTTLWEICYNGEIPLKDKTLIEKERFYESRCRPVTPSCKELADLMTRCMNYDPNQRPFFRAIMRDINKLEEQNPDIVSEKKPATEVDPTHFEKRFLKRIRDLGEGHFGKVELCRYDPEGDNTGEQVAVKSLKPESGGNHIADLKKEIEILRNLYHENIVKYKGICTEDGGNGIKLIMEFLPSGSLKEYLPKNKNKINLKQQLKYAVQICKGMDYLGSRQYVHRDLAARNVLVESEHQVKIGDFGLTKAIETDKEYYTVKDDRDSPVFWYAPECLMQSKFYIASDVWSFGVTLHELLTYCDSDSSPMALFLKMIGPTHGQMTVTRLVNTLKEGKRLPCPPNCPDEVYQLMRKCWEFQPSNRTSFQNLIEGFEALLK

| SMILES | IC50 ([1]; Table 3a) | IC50 ([2]; Table 3a) | IC50 [3, 8] | Dog LM QH [4, 9] | IC50 [5] | IC50 ([6]; Whole blood cell) | IC50 ([7]; Table 3a) | IC50 ([1]; Table 3b, comparator compounds) | IC50 ([7]; Table 3b, comparator compounds) | Inhibition PDE4B @ 1 μM ([7]; Table 3b, comparator compounds) | IC50 ([2]; Table 3b, comparator compounds) | IC50 [3, 10] | Dog LM QH ([4]; Table 3b, comparator compounds) | IC50 ([6]; Table 3b, comparator compounds) |
| --- | --- | --- | --- | --- | --- | --- | --- | --- | --- | --- | --- | --- | --- | --- |
| Cc1cnc(Nc2cc(Cl)c3c(c2)COB3O)nc1NC1CCCC1C#N (racemic) [Example 003, (trans)-2-((2-((7-chloro-1-hydroxy-1,3-dihydrobenzo[c][1,2]oxaborol-5-yl)amino)-5-methylpyrimidin-4-yl)amino)cyclopentane-1-carbonitrile] | 0.0007 µM | 0.04 µM | 0.106 µM | <19.9% | 0.0212 µM | 1.43 µM | – | – | – | – | – | – | – | – |
| Cc1cnc(Nc2cc(Cl)c3c(c2)COB3O)nc1NC1CCCCC1C#N (racemic) [Example 010, (trans)-2-[[2-[(7-chloro-1-hydroxy-1,3dihydrobenzo[c][1,2]oxaboroll-5-yl)amino]-5-methyl-pyrimidin-4-yl]amino]cyclohexane-1-carbonitrile] | 0.0007 µM | 0.0193 µM | 0.0717 µM | <19.9% | 0.0181 µM | 1.02 µM | – | – | – | – | – | – | – | – |
| Cc1cnc(Nc2cc3c(c(C(F)(F)F)c2)B(O)OC3)nc1NC1CCCCC1C#N (racemic) [Example 011, (trans)-2-((2-((1-hydroxy-7-(trifluoromethyl)-1,3-dihydrobenzo[c][1,2]oxaborol-5-yl)amino)-5-methylpyrimidin-4-yl)amino)cyclohexane-1-carbonitrile] | 0.0009 µM | 0.0375 µM | 0.159 µM | <19.9% | 0.0336 µM | 1.15 µM | – | – | – | – | – | – | – | – |
| Cc1cnc(Nc2ccc3c(c2)COB3O)nc1NC1COCCC1C#N (racemic) [Example 026, (trans)-3-[[2-[(1-hydroxy-3H-2,1-benzoxaborol-5-yl)amino]-5-methyl-pyrimidin-4-yl]amino]tetrahydropyran-4-carbonitrile] | 0.0005 µM | 0.007 µM | 0.0919 µM | <19.9% | 0.0646 µM | 2.66 µM | – | – | – | – | – | – | – | – |
| Cc1cnc(Nc2cc(Cl)c3c(c2)COB3O)nc1NC1COCCC1C#N (racemic) [Example 031, (trans)-3-((2-((7-chloro-1-hydroxy-1,3-dihydrobenzo[c][1,2]oxaborol-5-yl)amino)-5-methylpyrimidin-4-yl)amino)tetrahydro-2H-pyran-4-carbonitrile] | 0.0012 µM | 0.0408 µM | 0.0675 µM | <19.9% | 0.0276 µM | 3.15 µM | – | – | – | – | – | – | – | – |
| Cc1cnc(Nc2ccc3c(c2)COB3O)nc1N[C@@H]1CCCC[C@H]1C#N (relative stereo) [Example 008, (trans)2-[[2-[(1-hydroxy-3H-2,1-benzoxaborol-5-yl)amino]-5-methyl-pyrimidin-4-yl]amino]cyclohexane-1-carbonitrile] | 0.0003 µM | 0.0034 µM | 0.0959 µM | <19.9% | 0.0402 µM | 0.774 µM | – | – | – | – | – | – | – | – |
| N#C[C@@H]1CCCC[C@H]1Nc1nc(Nc2ccc3c(c2)COB3O)ncc1Cl (relative stereo) [Example 017, (trans)-2-((5-chloro-2-((1-hydroxy-1,3-dihydrobenzo[c][1,2]oxaborol-5-yl)amino)pyrimidin-4-yl)amino)cyclohexane-1-carbonitrile] | 0.0004 µM | 0.0042 µM | 0.233 µM | <19.9% | 0.0354 µM | 10 µM | – | – | – | – | – | – | – | – |
| Cc1cnc(Nc2cc(C)c3c(c2)COB3O)nc1N[C@@H]1COCC[C@H]1C#N (relative stereo) [Example 027, (trans)-3-((2-((1-hydroxy-7-methyl-1,3-dihydrobenzo[c][1,2]oxaborol-5-yl)amino)-5-methylpyrimidin-4-yl)amino)tetrahydro-2H-pyran-4-carbonitrile] | 0.0006 µM | 0.0035 µM | 0.0799 µM | 30.1% | 0.0813 µM | 1.2 µM | – | – | – | – | – | – | – | – |
| N#C[C@@H]1CCOC[C@H]1Nc1nc(Nc2cc(Cl)c3c(c2)COB3O)ncc1C(F)(F)F (relative stereo) [Example 049, (trans)-3-((2-((7-chloro-1-hydroxy-1,3-dihydrobenzo[c][1,2]oxaborol-5-yl)amino)-5-(trifluoromethyl)pyrimidin-4-yl)amino)tetrahydro-2H-pyran-4-carbonitrile] | 0.0082 µM | 0.0133 µM | 0.173 µM | 39.7% | – | – | 0.362 µM | – | – | – | – | – | – | – |
| CCC(CC)Nc1nc(Nc2ccc3c(c2)COB3O)ncc1C [Example C001] | – | – | – | – | – | – | – | 0.0016 µM | 0.0922 µM | 90% | 0.0602 µM | 0.115 µM | 73.8% | 1.72 µM |
| CCC(CC)Nc1nc(Nc2cc(F)c3c(c2)COB3O)ncc1C [Example C003] | – | – | – | – | – | – | – | 0.0007 µM | 0.212 µM | – | 0.0437 µM | 0.125 µM | 41.0% | 1.16 µM |
| CCC(CC)Nc1nc(Nc2cc(C)c3c(c2)COB3O)ncc1C [Example C004] | – | – | – | – | – | – | – | 0.0011 µM | – | 22% | 0.041 µM | 0.118 µM | 34.5% | > 10 µM |
| CCC(CC)Nc1nc(Nc2ccc3c(c2)COB3O)ncc1Cl [Example C005] | – | – | – | – | – | – | – | 0.0011 µM | 0.379 µM | – | 0.0333 µM | 6.12 µM | – | 2.25 µM |
| Cc1cnc(Nc2ccc3c(c2)COB3O)nc1NC1CCCC1 [Example C006] | – | – | – | – | – | – | – | 0.0065 µM | 0.114 µM | 86% | 0.154 µM | 0.293 µM | >86.6% | 0.27 µM |
| Cc1cnc(Nc2cc(Cl)c3c(c2)COB3O)nc1NC1CCCC1 [Example C007] | – | – | – | – | – | – | – | 0.0007 µM | 0.113 µM | – | 0.0318 µM | 0.3 µM | 52.1% | 3.74 µM |
| Cc1cnc(Nc2cc(C)c3c(c2)COB3O)nc1NC1CCCC1 [Example C008] | – | – | – | – | – | – | – | 0.0023 µM | – | 37% | 0.0593 µM | 0.973 µM | 54.3% | > 10 µM |
| Cc1cnc(Nc2ccc3c(c2)C(C)(C)OB3O)nc1NC1CCCC1 [Example C009] | – | – | – | – | – | – | – | 0.0024 µM | 0.761 µM | 40% | 0.0839 µM | 0.218 µM | 83.4% | 4.22 µM |
| Cc1cnc(Nc2ccc3c(c2)COB3O)nc1NC1CCCCC1 [Example C011] | – | – | – | – | – | – | – | 0.0032 µM | 0.242 µM | 13% | 0.0329 µM | 2.49 µM | 83.5% | 7.7 µM |
| OB1OCc2cc(Nc3ncc(Cl)c(NC4CCCC4)n3)ccc21 [Example C014] | – | – | – | – | – | – | – | 0.0033 µM | 0.0527 µM | – | 0.179 µM | 0.782 µM | 78.5% | 5.35 µM |
| Cc1cc(Nc2ncc(Cl)c(NC3CCCC3)n2)cc2c1B(O)OC2 [Example C016] | – | – | – | – | – | – | – | 0.0021 µM | – | 30% | 0.663 µM | 0.688 µM | 54.5% | 0.927 µM |
